In patent US9550749B2, “Endoparasite control agent and method for using the same” (The University of Tokyo, priority 2012, dated 2017):

How the values were obtained:
[1] = target: T1, Ascaris suum succinate-ubiquinone reductase (mitochondrial complex II) (Ascaris suum, UniProt O44074+P92506+P92507); assay: In vitro measurement of inhibitory activity on Ascaris suum succinate-ubiquinone reductase (mitochondrial complex II); format: biochemical; conditions: mitochondria from adult Ascaris suum muscle, UQ2 60 μM, succinate 10 mM, 25° C.
T1 construct: from tissue; host or cells: mitochondria from adult Ascaris suum muscle
T1 sequence (O44074 22-282): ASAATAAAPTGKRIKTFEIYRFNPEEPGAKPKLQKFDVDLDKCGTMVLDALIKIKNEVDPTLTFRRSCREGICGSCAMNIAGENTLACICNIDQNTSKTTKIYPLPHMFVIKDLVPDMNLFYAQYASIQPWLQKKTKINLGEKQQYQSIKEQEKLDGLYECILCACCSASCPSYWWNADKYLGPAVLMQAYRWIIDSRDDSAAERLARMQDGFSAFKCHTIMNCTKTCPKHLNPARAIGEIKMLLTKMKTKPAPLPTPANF
T1 sequence (P92506 32-188): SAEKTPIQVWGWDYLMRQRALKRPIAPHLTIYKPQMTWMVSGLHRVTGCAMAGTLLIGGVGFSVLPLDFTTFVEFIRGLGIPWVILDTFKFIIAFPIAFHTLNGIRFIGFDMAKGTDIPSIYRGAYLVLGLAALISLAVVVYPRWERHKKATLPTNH
T1 sequence (P92507 26-156): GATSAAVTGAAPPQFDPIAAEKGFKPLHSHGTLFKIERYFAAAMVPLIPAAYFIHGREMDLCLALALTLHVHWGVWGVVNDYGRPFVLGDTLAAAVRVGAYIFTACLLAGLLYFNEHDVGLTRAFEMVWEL
T1 sequence (Q33862 19-645 partner): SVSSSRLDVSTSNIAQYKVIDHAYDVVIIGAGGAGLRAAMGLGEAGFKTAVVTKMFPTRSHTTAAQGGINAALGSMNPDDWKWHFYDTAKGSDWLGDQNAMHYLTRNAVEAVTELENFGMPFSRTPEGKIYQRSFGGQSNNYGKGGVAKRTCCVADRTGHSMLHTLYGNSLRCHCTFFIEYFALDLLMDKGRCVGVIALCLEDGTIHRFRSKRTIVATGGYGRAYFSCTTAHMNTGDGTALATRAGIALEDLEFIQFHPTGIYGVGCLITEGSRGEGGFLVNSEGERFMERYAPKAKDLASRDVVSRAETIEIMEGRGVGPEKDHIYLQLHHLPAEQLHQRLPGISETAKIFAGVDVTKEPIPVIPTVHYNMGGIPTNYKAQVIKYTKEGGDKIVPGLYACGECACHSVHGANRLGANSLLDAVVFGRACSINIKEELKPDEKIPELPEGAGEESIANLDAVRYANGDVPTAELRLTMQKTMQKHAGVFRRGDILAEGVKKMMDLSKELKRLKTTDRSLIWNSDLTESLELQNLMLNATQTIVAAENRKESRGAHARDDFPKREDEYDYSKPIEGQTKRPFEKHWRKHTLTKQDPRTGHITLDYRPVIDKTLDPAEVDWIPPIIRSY
Experimental: In Vitro Measurement of Inhibitory Activity on Ascaris suum Succinate-Ubiquinone Reductase (Mitochondrial Complex II)
To a solution containing 50 mM potassium phosphate (pH 7.4) and 0.1% (w/v) sucrose monolaurate, an electron acceptor ubiquinone-2 (UQ2) was added at a final concentration of 60 μM, and the mixture was allowed to stand at 25° C. for 20 minutes. To this, potassium cyanide (final concentration: 2 mM) and mitochondria prepared from adult Ascaris suum muscle were added, and thorough mixing was done. To aliquots of the mixture, an inhibitor to be tested was added at various concentrations, and the mixtures were allowed to stand at 25° C. for 3 minutes. The enzymatic reaction was initiated by addition of potassium succinate (final concentration: 10 mM). The enzymatic activity was calculated based on the measurement of change in the absorbance at 278 nm of UQ2 (e=1.5×10^4 M^−1 cm^−1), and IC50 was determined from the plot of the inhibition percentage against the inhibitor concentration.

[2] = tested on: Haemonchus contortus L1-stage larvae; assay: In vivo activity test on Haemonchus nematode (motor ability of L1-stage larvae in 96-well plate); conditions: 27° C./95% RH, 4 days
Experimental: In Vivo Activity Test on Haemonchus Nematode In a 96-well plate, twenty L1-stage larvae (Haemonchus contortus) per well were maintained so that they could freely move, and solutions of compounds of the present invention dissolved at predetermined concentrations in DMSO (the final concentration of DMSO was 0.78% (v/v)) were added at 0.5 Ill/well each. The plate was kept under the conditions of 27° C./95% RH for 4 days. The motor ability of the larvae was examined and the concentration required for 50% inhibition of the motor ability (EC50) was determined. Based on the EC50 value, the activity against the Haemonchus nematode was graded according to the criterion shown below. Grading Criterion A: The EC50 value is lower than 0.5 ppm. B: The EC50 value is 0.5 ppm or higher but lower than 5 ppm. C: The EC50 value is 5 ppm or higher.

IC50 [1] [nM] | SMILES | Grade (EC50, concentration required for 50% inhibition of the motor ability of larvae) [2]
8.2 | O=C(NCCc1ccc(Cl)cc1Cl)c1ccccc1SC(F)F [Compound 31] | 
48 | O=C(NCCc1ccc(Cl)cc1Cl)c1ccccc1OC(F)(F)F [Compound 32] | A (The EC50 value is lower than 0.5 ppm.)
2.1 | O=C(NCCc1ncc(C(F)(F)F)cc1Cl)c1ccccc1Cl [Compound 34] | 
2.3 | O=C(NCCc1ncc(C(F)(F)F)cc1Cl)c1ccccc1Br [Compound 35] | 
1.2 | O=C(NCCc1ncc(C(F)(F)F)cc1Cl)c1ccccc1I [Compound 36] | A (The EC50 value is lower than 0.5 ppm.)
2.6 | Cc1ccccc1C(=O)NCCc1ncc(C(F)(F)F)cc1Cl [Compound 37] | 
5.3 | O=C(NCCc1ncc(C(F)(F)F)cc1Cl)c1c(F)cccc1F [Compound 39] | 
39 | O=C(NCCc1ncc(C(F)(F)F)cc1Cl)c1c(Cl)cccc1Cl [Compound 40] | 

Second part, the compound before the results:

SMILES | IC50 [1] [nM] | Grade (EC50, concentration required for 50% inhibition of the motor ability of larvae) [2]
C[C@@H](Cn1nc(Cl)cc1C(F)(F)F)NC(=O)c1ccccc1C(F)(F)F [Compound 1] | 5.2 | A (The EC50 value is lower than 0.5 ppm.)
C[C@@H](Cn1nc(C(F)(F)F)cc1Cl)NC(=O)c1ccccc1C(F)(F)F [Compound 2] |  | A (The EC50 value is lower than 0.5 ppm.)
C[C@@H](Cn1nc(Cl)c(Br)c1Cl)NC(=O)c1ccccc1C(F)(F)F [Compound 3] | 1.4 | A (The EC50 value is lower than 0.5 ppm.)
C[C@@H](Cn1nc(C(F)(F)F)c(Cl)c1Cl)NC(=O)c1ccccc1C(F)(F)F [Compound 4] | 1.9 | A (The EC50 value is lower than 0.5 ppm.)
C[C@@H](Cn1nc(C(F)(F)F)cc1Br)NC(=O)c1ccccc1C(F)(F)F [Compound 5] | 5.8 | A (The EC50 value is lower than 0.5 ppm.)
Cc1ccccc1C(=O)N[C@@H](C)Cn1nc(Cl)c(Br)c1C(F)(F)F [Compound 6] | 2 | 
C[C@@H](Cn1nc(Cl)c(Br)c1C(F)(F)F)NC(=O)c1ccccc1C(F)(F)F [Compound 7] | 1.7 | A (The EC50 value is lower than 0.5 ppm.)
Cc1ccccc1C(=O)N[C@@H](C)Cn1nc(Cl)cc1C(F)(F)F [Compound 10] |  | B (The EC50 value is 0.5 ppm or higher but lower than 5 ppm.)
C[C@@H](Cn1nc(Br)c(Br)c1Br)NC(=O)c1ccccc1C(F)(F)F [Compound 14] | 1.8 | 
CSc1cc(C(F)(F)F)n(C[C@H](C)NC(=O)c2ccccc2C(F)(F)F)n1 [Compound 18] | 3.1 | 
C[C@@H](COc1ncc(C(F)(F)F)cc1Cl)NC(=O)c1ccccc1C(F)(F)F [Compound 23] | 1.8 | A (The EC50 value is lower than 0.5 ppm.)
O=C(NCCNc1ncc(C(F)(F)F)cc1Cl)c1ccccc1C(F)(F)F [Compound 24] | 11 | A (The EC50 value is lower than 0.5 ppm.)
O=C(NCCc1ccc(Oc2ncc(C(F)(F)F)cc2Cl)cc1Cl)c1ccccc1C(F)(F)F [Compound 26] | 1.4 | A (The EC50 value is lower than 0.5 ppm.)
C[S+]([O-])c1ccc(CCNC(=O)c2ccccc2C(F)(F)F)c(Cl)c1 (centres unmarked) [Compound 27] | 260 | B (The EC50 value is 0.5 ppm or higher but lower than 5 ppm.)
CSc1ccccc1C(=O)NCCc1ccc(Cl)cc1Cl [Compound 28] | 1.2 | A (The EC50 value is lower than 0.5 ppm.)
